Numbers after ± are expanded uncertainties.
Assays:
[1] = Crystal 2; Adiabatic calorimetry
[2] = Molar enthalpy of transition or fusion; details: Crystal 2; DSC

Triple point temperature [1]: 208 ± 0.18 K | Molar enthalpy of transition or fusion [2]: 0.739 ± 0.043 kcal/mol
SMILES: C1C2CC3CC1CC(C2)C3 [adamantane]
